The text below walks through data of US8329675B2, “Inhibitors of fatty acid amide hydrolase” (Infinity Pharmaceuticals, Inc., priority 2006, dated 2012).

In general, Ki refers to a dissociation constant, usually derived from enzyme kinetics or from competition with a known ligand.

Molecules are shown by their SMILES.

The target in the first test is T1, human FAAH (Homo sapiens, UniProt O00519).
T1 construct: host or cells: COS-7 cells, transient transfection; 13,000 g membrane fraction solubilised in 1% Triton X-100
T1 sequence (O00519 1-579): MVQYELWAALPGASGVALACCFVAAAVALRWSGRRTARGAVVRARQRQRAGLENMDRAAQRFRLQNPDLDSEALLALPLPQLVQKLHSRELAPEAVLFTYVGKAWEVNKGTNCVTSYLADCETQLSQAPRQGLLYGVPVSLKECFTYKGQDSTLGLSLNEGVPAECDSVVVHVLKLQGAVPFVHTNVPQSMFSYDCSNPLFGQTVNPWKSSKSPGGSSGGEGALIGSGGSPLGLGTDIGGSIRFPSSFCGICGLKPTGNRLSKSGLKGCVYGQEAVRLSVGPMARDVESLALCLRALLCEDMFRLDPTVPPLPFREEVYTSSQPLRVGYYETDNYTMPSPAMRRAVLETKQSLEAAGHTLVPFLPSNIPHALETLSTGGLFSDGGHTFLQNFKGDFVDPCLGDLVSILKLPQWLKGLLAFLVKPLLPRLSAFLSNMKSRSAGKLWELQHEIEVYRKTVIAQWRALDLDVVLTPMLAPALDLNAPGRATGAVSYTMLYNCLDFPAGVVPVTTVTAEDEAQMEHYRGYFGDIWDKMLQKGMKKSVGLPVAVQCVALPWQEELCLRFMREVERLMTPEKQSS
The test can be described thus: Human FAAH biochemical inhibition assay (AMC arachidonoyl amide fluorescence).
Settings: not given
On the procedure: The resulting solution is added into one dish of 30-40% confluent COS-7 cells in a drop-wise manner. The COS-7 cell dish is subsequently incubated for 48 hours. The cells are then harvested.
Harvest procedure: Media was aspirated from the dishes and the cells rinsed with 10 mL PBS. The PBS was removed and 3 mLs of PBS added to the dish. The dish was scraped to resuspend the cells, and the subsequent cell suspension collected into a 15 ml conical tube. The cells were pelleted by centrifugation at 1200 rpm for 5 minutes in a bench top centrifuge. PBS was removed and the cell pellet snap frozen in liquid nitrogen, store at −80 C.
The pellets were dounce homogenized and then sonicated to produce cell extract. The cell extract was subsequently centrifuged at 1000 g to remove cellular debris. The pellet was discarded and the supernatant centrifuged at 13,000 g for 20 minutes. The pellet contained membrane bound FAAH. The supernatant was discarded and the pellet resolubilized.
(2) Re-solubilization: The fraction of interest, (13,000 g, membrane fraction) was re-suspended in re-suspension buffer (20 mM Hepes pH 7.8, 10% v/v Glycerol, 1 mM EDTA, 1% Triton X-100) (2.3 mL re-suspension and the sample incubated on ice for 1 hour and then centrifuged to at 13,000 g remove any particulate matter. The supernatant containing solubilized human FAAH was aliquoted and snap frozen in liquid nitrogen and stored at −80° C. until use.
FAAH reaction buffer: 50 mM Hepes (pH 7.5), 1 mM EDTA, 0.2% Triton X-100.
Human FAAH assay; Experimental Protocol: A 0.1 mg/mL Human FAAH solution is made up in FAAH reaction buffer, and 24 ul pipetted into a 384 well plate. To this is added 1 uL of a 3 fold serially diluted inhibitor from a DMSO stock solution. The FAAH solution and inhibitor are incubated for 30 minutes at room temperature. The FAAH reaction is initiated by the addition of 25 uL of 40 uM AMC Arachidonoyl Amide in FAAH reaction buffer, yielding a final reaction human FAAH preparation concentration of 0.05 mg/ml and AMC-Arachidonoyl substrate concentration of 20 uM, reaction volume 50 uL. The reaction is allowed to proceed for 4 hours at room temperature. […] The microtiter plate in read in the envision plate reader.
In turn, `NCCOB(c1ccccc1)c1ccccc1` [Compound I-125] came in with a Ki of over 1000 nM.

Staying with this test, now noted: Table 1, human FAAH (no asterisk); read-out: Activity (Ki).
As for `CC(=O)c1ccc(B(O)O)cc1` [Compound I-85], the inhibitory constant (Ki) lay in the range of 10 to 1000 nM.

With `OB(O)c1ccc(C(F)(F)F)cc1` [Compound I-86], the Ki was 10 to 100 nM. In the case of `COc1ccc(B(O)O)cc1` [Compound I-87], the Ki was over 1000 nM.

As to `OB(O)c1ccc2c(c1)OCO2` [Compound I-88], the Ki was over 1000 nM. The same measure, in the same setting: with `OB(O)c1cncnc1` [Compound I-89] the figure was over 1000 nM; with `OB(O)c1ccncc1` [Compound I-90], over 1000 nM; with `OB(O)c1cccnc1` [Compound I-91], over 1000 nM.

Take `OB(O)c1ccsc1` [Compound I-92]: the inhibitory constant (Ki) is over 1000 nM. Turning to `OB(O)c1ccco1` [Compound I-93], the Ki is over 1000 nM. For the compound `CC(C)(C)c1ccc(B(O)O)cc1` [Compound I-94], the Ki was 10 to 100 nM. Same read-out and setting: with `CC(C)c1ccc(B(O)O)cc1` [Compound I-95] the figure was 10 to 100 nM. Still for that read-out and setting: with `Cc1ccc(B(O)O)cc1` [Compound I-96] the figure was over 1000 nM; with `CC(C)Cc1ccc(B(O)O)cc1` [Compound I-97], 10 to 100 nM; with `OB(O)c1ccc2c(c1)OCCO2` [Compound I-98], 10 to 1000 nM. As for `OB1OCCc2ccccc21` [Compound I-99], the Ki was over 1000 nM.

Consider `OB(O)c1cccc2[nH]ccc12` [Compound I-100], for which the Ki is over 1000 nM. The same measure, in the same setting: with `OB(O)c1ccc2cc[nH]c2c1` [Compound I-101] the figure was over 1000 nM; with `Cn1ccc2ccc(B(O)O)cc21` [Compound I-102], over 1000 nM; with `OB(O)c1ccc2c(c1)CCO2` [Compound I-103], over 1000 nM. With `O=Cc1ccc(B(O)O)c2ccccc12` [Compound I-104], the Ki was in the range of 10 to 1000 nM. For the compound `OB(O)c1ccccc1F` [Compound I-105], the Ki is 10 to 1000 nM. Same read-out and setting: with `OB(O)/C=C/c1ccccc1` [Compound I-106] the figure was over 1000 nM; with `OB(O)c1ccccc1` [Compound I-107], over 1000 nM. Still for that read-out and setting: the same measure for `OB(O)c1ccc2nccn2c1` [Compound I-109]: over 1000 nM. Consider `Cc1ccc(B(O)O)c(F)c1` [Compound I-110], for which the inhibition constant (Ki) was in the range of 10 to 1000 nM. As to `OB(O)c1cccc2ccccc12` [Compound I-111], the Ki lay within 10 to 1000 nM.

Consider `OB(O)c1cccc2cccnc12` [Compound I-112], for which the Ki is over 1000 nM. Same read-out and setting: with `OB(O)c1cccc2ncccc12` [Compound I-113] the figure was 10 to 1000 nM.

For `CC(C)(C)OC(=O)n1c(B(O)O)cc2cc(OCc3ccccc3)ccc21` [Compound I-114], the Ki is over 1000 nM. On the same count and under the same terms, with `CC(C)(C)OC(=O)n1c(B(O)O)cc2c(OCc3ccccc3)cccc21` [Compound I-115] the figure was over 1000 nM; with `Cn1c(B(O)O)cc2c(OCc3ccccc3)cccc21` [Compound I-116], over 1000 nM; with `COc1ccc(CN(Cc2ccc(OC)cc2)S(=O)(=O)c2ccc(B(O)O)cc2)cc1` [Compound I-117], over 1000 nM. On the same count and under the same terms, with `COc1ccc(CN(Cc2ccccc2)S(=O)(=O)c2ccc(B(O)O)cc2)cc1` [Compound I-118] the figure was 10 to 1000 nM; with `O=S(=O)(NCC1CCCCC1)c1ccc(B(O)O)cc1` [Compound I-119], 10 to 1000 nM; with `COc1ccc(CNS(=O)(=O)c2ccc(B(O)O)cc2)cc1` [Compound I-120], 10 to 100 nM. Still for that read-out and setting: the same measure for `Cc1nnc(-c2ccc(B(O)O)cc2)o1` [Compound I-121]: 10 to 100 nM; for `COc1ccc(CNC(=O)Nc2ccc(B3OC(C)(C)C(C)(C)O3)cc2)cc1` [Compound I-122]: 10 to 1000 nM. `O=C(NCCc1ccccc1)c1ccc(B(O)O)cc1` [Compound I-123]: the Ki was under 10 nM. On the same count and under the same terms, with `OB(O)c1ccc(OCCn2cccn2)cc1` [Compound I-124] the figure was 10 to 100 nM; with `CC1(C)OB(c2ccc(/C=C\c3ccccc3)cc2)OC1(C)C` [Compound I-126], over 1000 nM; with `OB(O)c1ccc2[nH]ccc2c1` [Compound I-128], over 1000 nM.

On to `O=C(c1ccc(Oc2ccccc2)cc1)C(F)(F)F` [Compound I-132], for which the Ki is over 1000 nM. Still for that read-out and setting: the same measure for `CC(C)(C)OC(=O)n1c(B(O)O)cc2ccccc21` [Compound I-133]: over 1000 nM. Take `Cc1cc(OCc2ccccc2)ccc1B(O)O` [Compound I-134]: the inhibition constant (Ki) was in the range of 10 to 100 nM. On to `OB(O)c1ccc(-c2cccs2)s1` [Compound I-135], for which the inhibition constant (Ki) is 10 to 1000 nM. The same measure, in the same setting: with `O=Cc1ccc(-c2ccccc2)c(F)c1` [Compound I-136] the figure was over 1000 nM. The same measure, in the same setting: the same measure for `CCCCOc1ccc(B(O)O)c(C)c1` [Compound I-138]: 10 to 1000 nM. Still for that read-out and setting: the same measure for `OB(O)c1ccc(N2CCOCC2)cc1` [Compound I-139]: 10 to 1000 nM; for `OB(O)c1cccc(OCc2ccccc2Cl)c1` [Compound I-140]: 10 to 100 nM; for `OB(O)c1cccc(OCc2cccc(Cl)c2)c1` [Compound I-141]: 10 to 100 nM. As for `OB(O)c1c(F)ccc(OCc2ccccc2)c1F` [Compound I-143], the Ki is over 1000 nM. Regarding `OB(O)c1ccc(OCc2ccccc2)cc1F` [Compound I-146], the Ki is under 10 nM. As to `OB(O)c1ccc(OCc2cccc(Br)c2)c(Cl)c1` [Compound I-147], the Ki is under 10 nM. Still for that read-out and setting: the same measure for `Cc1cc(B(O)O)cc(C)c1OCc1cccc(Cl)c1` [Compound I-148]: under 10 nM. Same read-out and setting: the same measure for `OB(O)c1ccc(OCc2ccc(F)cc2)c(Cl)c1` [Compound I-152]: under 10 nM.

With `OB(O)c1ccc(OCc2cccc(Cl)c2)c(Cl)c1` [Compound I-154], the Ki is under 10 nM.

As for `OB(O)c1ccc(OC2CCCCO2)cc1` (centres unmarked) [Compound I-158], the Ki fell in the range of 10 to 100 nM. For the compound `OB(O)c1ccc2c(c1)Oc1ccccc1S2` [Compound I-159], the Ki is over 1000 nM. On the same count and under the same terms, with `OB(O)c1cc2ccccc2nc1Cl` [Compound I-160] the figure was over 1000 nM. On the same count and under the same terms, with `CCCCCc1ccc(B(O)O)cc1` [Compound I-161] the figure was under 10 nM; with `OB(O)c1ccc(C2CCCCC2)cc1` [Compound I-162], under 10 nM. Consider `O=C(Nc1ccc(B(O)O)cc1)OCc1ccccc1` [Compound I-163], for which the Ki is 10 to 100 nM. In the case of `O=C(NCc1ccccc1)c1ccc(B(O)O)cc1` [Compound I-164], the Ki was under 10 nM. The same measure, in the same setting: the same measure for `O=C(Nc1ccccc1)c1cccc(B(O)O)c1` [Compound I-165]: over 1000 nM; for `O=C(NCc1ccco1)c1ccc(B(O)O)cc1` [Compound I-167]: 10 to 100 nM; for `OB(O)c1ccc2cc(O)ccc2c1` [Compound I-168]: 10 to 100 nM. Regarding `O=C(Nc1ccccc1)c1ccc(B(O)O)cc1` [Compound I-169], the Ki was in the range of 10 to 100 nM. On the same count and under the same terms, the same measure for `O=C(c1ccc(B(O)O)cc1)N1CCOCC1` [Compound I-171]: 10 to 1000 nM.

For `O=C(OCc1ccccc1)c1ccc(B(O)O)cc1` [Compound I-173], the inhibitory constant (Ki) was under 10 nM. As for `OB(O)c1cc2ccccc2o1` [Compound I-176], the Ki is over 1000 nM. Same read-out and setting: the same measure for `OB(O)c1ccc2ccccc2c1` [Compound I-178]: 10 to 100 nM; for `OB(O)c1ccc2c3c(cccc13)CC2` [Compound I-181]: 10 to 1000 nM. In the case of `OB(O)c1ccccc1OCc1ccccc1` [Compound I-182], the Ki was over 1000 nM.

For `OB(O)c1cc2ccccc2c2ccccc12` [Compound I-183], the Ki is over 1000 nM. The same measure, in the same setting: the same measure for `COc1ccc2cc(B(O)O)ccc2c1` [Compound I-184]: 10 to 100 nM; for `OB(O)c1ccc(-c2ccccc2)cc1F` [Compound I-185]: under 10 nM.
